Source: PMC6152618, “Antimicrobial Activity of Truncated and Polyvalent Peptides Derived from the FKCRRWQWRMKKGLA Sequence against Escherichia coli ATCC 25922 and Staphylococcus aureus ATCC 25923” (Molecules : A Journal of Synthetic Chemistry and Natural …, 2017)
Values after ≈ are worked out from the molar mass of the structure shown. Read-outs that look alike come from different tables or passages of the source. Ends that are not written are not given here.

Legend:
[1] = test system: Escherichia coli ATCC 25922; assay type: cell-based
Description: (§1) The MIC was determined using a microdilution assay. In brief, bacterial strains were incubated for 18 to 24 h at 37 °C in an Müller-Hinton (MH) broth until an optical density of 0.15 to 0.30 (620 nm) was obtained. Next, 90 μL of Mueller-Hinton broth (MHB) was mixed with […], and serial dilutions (200, 100, 50, 25, 12.5 and 6.2) were prepared in 96-well microplates (final volume 100 μL/well). Then, 10 μL of inoculum (2 × 10^6 CFU/mL) was added to each well. The final volume in each well was 100 μL. Then they were incubated for 24 h at 37 °C; the absorbance at 620 nm was measured using an Asys Expert Plus ELISA reader. For determining the MBC, a small sample was taken from each well using an inoculation loop, and then was spread on MH agar plates and incubated overnight at 37 °C. MBC was considered on the plate which presented no bacterial growth. Each of these tests was performed twice (n = 2).

[2] = test system: Staphylococcus aureus ATCC 25923; assay type: cell-based
Description: as §1

E. coli ML35 = details: cited from earlier work
From the text: (§2) Please note that in this sequence some C-terminal positions have been changed compared to LfcinB 17–31 [38, 48]. The peptide LfcinB 17–31 has been studied for its relative structure and antibacterial activit ...

S. aureus 42D = details: cited from earlier work
From the text: as §2

E. coli O9 = test system: E. coli O9; set-up: method as in PMID 8980754; details: cited from earlier work
S. aureus [3] = test system: S. aureus; set-up: method as in PMID 8980754; details: cited from earlier work
E. coli L361 = test system: E. coli L361; set-up: method as in PMID 8980754; details: cited from earlier work
E coli = details: cited from earlier work
From the text: as §2

S. aureus [4] = details: cited from earlier work
From the text: as §2

[5] = microdilution, Mueller-Hinton broth, 24 h at 37 °C, absorbance 620 nm, n = 2
[6] = sample of each well spread on MH agar, overnight 37 °C, no bacterial growth, n = 2

For FKCRRWQWRM-NH2 [LfcinB 17–26], the “MIC E. coli ATCC 25922” value [1, 5] was 100 µM, the “MBC E. coli ATCC 25922” value [1, 6] was 200 µM and the “MIC S. aureus ATCC 25923” value [2, 5] was 200 µM. For the same compound, the “MBC S. aureus ATCC 25923” value [2, 6] was 200 µM.

In the case of “KCRRWQWRMKKLGA [LfcinB 18–31, …, truncated peptide of LfcinB 17–31]”, the “MIC E. coli ATCC 25922” value [1, 5] is reported as over 200 µM, the “MBC E. coli ATCC 25922” value [1, 6] is reported as over 200 µM and the “MIC S. aureus ATCC 25923” value [2, 5] is reported as over 200 µM. For the same compound, the “MBC S. aureus ATCC 25923” value [2, 6] was over 200 µM.

For “LfcinB 20–30: literature analogue of LfcinB 20-31 (CVRRAFALECI; lactoferricin B; UniProt P24627 55-65, looked up, fragment)”, the “LD99.9 E. coli ML35” value (E. coli ML35) is given as 15 µM and the “LD99.9 S. aureus 42D” value (S. aureus 42D) is given as 7.5 µM.

For RRWQWRMKKLGA [LfcinB 20–31], the “MBC E. coli ATCC 25922” value ([1]; ATCC 25922) was over 200 µM, the “MIC E. coli ATCC 25922” value ([1]; ATCC 25922, 24 h) was 200 µM and the “MBC S. aureus ATCC 25923” value ([2]; ATCC 25923) was over 200 µM. The “MIC S. aureus ATCC 25923” value ([2]; ATCC 25923, 24 h) was over 200 µM.

With FKCRRWQWRMKKLG-NH2 [LfcinB 17–30] the “MBC E. coli ATCC 25922” value ([1]; ATCC 25922) was 200 µM, the “MIC E. coli ATCC 25922” value ([1]; ATCC 25922, 24 h) was 200 µM and the “MBC S. aureus ATCC 25923” value ([2]; ATCC 25923) was over 200 µM. The “MIC S. aureus ATCC 25923” value ([2]; ATCC 25923, 24 h) was over 200 µM.

For RWQWRWQWR [(LfcinB 21–25)Pal], the “MIC E. coli ATCC 25922” value ([1]; ATCC 25922, 24 h) was 12.5 µM.

In the case of “(FKARRWQWRMKKLGA)2K-Ahx-C [([Ala^19]-LfcinB 17–31)2]”, the “MIC S. aureus ATCC 25923” value [2, 5] is reported as 12.5 µM and the “MBC S. aureus ATCC 25923” value [2, 6] is reported as 12.5 µM.

In the case of FKCRRWQWRMKKL-NH2 [LfcinB 17–29], the “MBC E. coli ATCC 25922” value ([1]; ATCC 25922) is reported as over 200 µM and the “MIC E. coli ATCC 25922” value ([1]; ATCC 25922, 24 h) is reported as 200 µM.

For “RRWQWR-NH2 [LfcinB 20–25, reference compound]”, the “MBC E. coli ATCC 25922” value ([1]; ATCC 25922) was over 200 µM, the “MIC E. coli ATCC 25922” value ([1]; ATCC 25922, 24 h) was over 200 µM and the “MBC S. aureus ATCC 25923” value ([2]; ATCC 25923) was over 200 µM. For the same compound, the “MIC S. aureus ATCC 25923” value ([2]; ATCC 25923, 24 h) was over 200 µM.

In the case of CRRWQWRMKKLGA-NH2 [LfcinB 19–31], the “MBC E. coli ATCC 25922” value ([1]; ATCC 25922) is reported as 100 µM, the “MIC E. coli ATCC 25922” value ([1]; ATCC 25922, 24 h) is reported as 100 µM and the “MBC S. aureus ATCC 25923” value ([2]; ATCC 25923) is reported as over 200 µM. For the same compound, the “MIC S. aureus ATCC 25923” value ([2]; ATCC 25923, 24 h) was over 200 µM.

For “FKCRRWQWR-Homoserine lactone [subfragment 1, literature peptide …-Homoserine lactone]”, the “antibacterial activity against E. coli O9” value (E. coli O9) is given as 15 µM, the “antibacterial activity against S. aureus” value (S. aureus [3]) is given as over 50 µM and the “antibacterial activity against E. coli L361” value (E. coli L361) is given as 10 µM.

In the case of FKCRRWQWRMK-NH2 [LfcinB 17–27], the “MBC E. coli ATCC 25922” value ([1]; ATCC 25922) is reported as 200 µM, the “MIC E. coli ATCC 25922” value ([1]; ATCC 25922, 24 h) is reported as 100 µM and the “MBC S. aureus ATCC 25923” value ([2]; ATCC 25923) is reported as over 200 µM. For the same compound, the “MIC S. aureus ATCC 25923” value ([2]; ATCC 25923, 24 h) was over 200 µM.

In the case of SKCYQWQRRMRKLGA, the “MIC E coli” value (E coli) is listed as 252 µM and the “MIC S. aureus” value (S. aureus [4]) is listed as over 500 µM.

With FKCRRWQWR-NH2 [LfcinB 17–25] the “MBC E. coli ATCC 25922” value ([1]; ATCC 25922) was 100 µM, the “MIC E. coli ATCC 25922” value ([1]; ATCC 25922, 24 h) was 100 µM and the “MBC S. aureus ATCC 25923” value ([2]; ATCC 25923) was over 200 µM. For the same compound, the “MIC S. aureus ATCC 25923” value ([2]; ATCC 25923, 24 h) was over 200 µM.

With FKCRRWQWRMKK-NH2 [LfcinB 17–28] the “MBC E. coli ATCC 25922” value ([1]; ATCC 25922) was 200 µM, the “MIC E. coli ATCC 25922” value ([1]; ATCC 25922, 24 h) was 200 µM and the “MBC S. aureus ATCC 25923” value ([2]; ATCC 25923) was over 200 µM. The “MIC S. aureus ATCC 25923” value ([2]; ATCC 25923, 24 h) was over 200 µM.

In the case of `CSCC[C@H](NC(=O)[C@H](CCCNC(=N)N)NC(=O)[C@H](Cc1c[nH]c2ccccc12)NC(=O)[C@H](CCC(N)=O)NC(=O)[C@H](Cc1c[nH]c2ccccc12)NC(=O)[C@H](CCCNC(=N)N)NC(=O)[C@H](CCCNC(=N)N)NC(=O)[C@H](CS)NC(=O)[C@H](CCCCN)NC(=O)[C@@H](N)Cc1ccccc1)C(=O)N[C@@H](CCCCN)C(=O)N[C@@H](CCCCN)C(=O)N[C@@H](CC(C)C)C(=O)NCC(=O)N[C@@H](C)C(N)=O` [LfcinB 17–31, reference compound], the “MIC E. coli ATCC 25922” value [1, 5] is reported as 200 µM (≈ 399 µg/mL), the “MBC E. coli ATCC 25922” value [1, 6] is reported as over 200 µM and the “MIC S. aureus ATCC 25923” value [2, 5] is reported as over 200 µM. The “MBC S. aureus ATCC 25923” value [2, 6] was over 200 µM.

With `CSCC[C@H](NC(=O)[C@H](CCCNC(=N)N)NC(=O)[C@H](Cc1c[nH]c2ccccc12)NC(=O)[C@H](CCC(N)=O)NC(=O)[C@H](Cc1c[nH]c2ccccc12)NC(=O)[C@H](CCCNC(=N)N)NC(=O)[C@H](CCCNC(=N)N)NC(=O)[C@H](C)NC(=O)[C@H](CCCCN)NC(=O)[C@@H](N)Cc1ccccc1)C(=O)N[C@@H](CCCCN)C(=O)N[C@@H](CCCCN)C(=O)N[C@@H](CC(C)C)C(=O)NCC(=O)N[C@@H](C)C(=O)O` [[Ala^19]-LfcinB 17–31] the “MBC S. aureus ATCC 25923” value ([2]; ATCC 25923) was over 200 µM and the “MIC S. aureus ATCC 25923” value ([2]; ATCC 25923, 24 h) was over 200 µM.
